Measured values as given in US11208412B2 (DAEGU-GYEONGBUK MEDICAL INNOVATION FOUNDATION, priority 2017, dated 2021).

Tests used:
Assay in all cases: Kinase selectivity, DiscoverX scanMAX Kinase assay panel (% control)
Format in all cases: binding
[1] = biological target: T1, kinases of the scanMAX Kinase assay panel (Homo sapiens, UniProt Q12851); details: MAP4K2; 1 uM
T1 construct: purchased DiscoverX Co. (contract measurement) scanMAX Kinase assay panel
T1 sequence (Q12851 1-820): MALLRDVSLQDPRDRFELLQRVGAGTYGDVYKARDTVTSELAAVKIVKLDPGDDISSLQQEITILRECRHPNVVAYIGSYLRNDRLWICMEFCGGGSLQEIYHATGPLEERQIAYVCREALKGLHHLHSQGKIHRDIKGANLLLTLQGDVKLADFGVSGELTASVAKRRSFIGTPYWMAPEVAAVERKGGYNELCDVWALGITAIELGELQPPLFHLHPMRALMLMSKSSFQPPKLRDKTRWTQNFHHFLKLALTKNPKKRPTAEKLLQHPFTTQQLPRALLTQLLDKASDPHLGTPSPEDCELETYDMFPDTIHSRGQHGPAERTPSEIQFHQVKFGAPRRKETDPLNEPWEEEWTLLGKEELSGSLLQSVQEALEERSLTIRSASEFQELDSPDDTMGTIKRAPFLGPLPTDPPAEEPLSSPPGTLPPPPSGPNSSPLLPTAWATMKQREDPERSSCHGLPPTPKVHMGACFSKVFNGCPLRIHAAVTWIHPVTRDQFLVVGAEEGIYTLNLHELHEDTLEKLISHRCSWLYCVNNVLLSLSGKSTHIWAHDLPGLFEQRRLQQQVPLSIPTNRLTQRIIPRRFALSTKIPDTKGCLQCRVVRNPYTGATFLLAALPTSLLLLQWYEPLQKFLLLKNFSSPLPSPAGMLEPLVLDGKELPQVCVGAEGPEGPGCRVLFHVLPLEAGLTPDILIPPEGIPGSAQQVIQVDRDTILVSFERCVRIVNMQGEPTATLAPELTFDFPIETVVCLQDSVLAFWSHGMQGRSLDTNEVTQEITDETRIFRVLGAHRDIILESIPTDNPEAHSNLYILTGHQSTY
Outline: (§1)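 A 1 uM DMSO solution of compound was applied across the panel kinases, and results were expressed as % control relative to DMSO (100%) and a positive control (0%).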

[2] = biological target: T2, kinases of the scanMAX Kinase assay panel (Homo sapiens, UniProt O00141); details: kinase SGK; 1 uM in DMSO
T2 construct: purchased DiscoverX Co. (contract measurement) scanMAX Kinase assay panel
T2 sequence (O00141 1-431): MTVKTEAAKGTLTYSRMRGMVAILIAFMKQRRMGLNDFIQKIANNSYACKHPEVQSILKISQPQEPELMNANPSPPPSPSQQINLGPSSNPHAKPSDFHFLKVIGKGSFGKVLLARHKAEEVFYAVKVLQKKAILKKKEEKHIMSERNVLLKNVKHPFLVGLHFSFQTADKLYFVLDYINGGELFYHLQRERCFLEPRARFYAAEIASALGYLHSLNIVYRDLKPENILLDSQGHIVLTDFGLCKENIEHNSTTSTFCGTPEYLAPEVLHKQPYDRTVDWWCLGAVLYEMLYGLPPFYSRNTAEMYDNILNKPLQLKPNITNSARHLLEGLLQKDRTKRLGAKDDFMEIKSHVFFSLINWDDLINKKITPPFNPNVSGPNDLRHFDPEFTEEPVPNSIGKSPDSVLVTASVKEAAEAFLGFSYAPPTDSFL
Outline: as §1

[3] = biological target: T3, kinases of the scanMAX Kinase assay panel (Homo sapiens, UniProt O95835); details: LATS1; 1 uM
T3 construct: purchased DiscoverX Co. (contract measurement) scanMAX Kinase assay panel
T3 sequence (O95835 1-1130): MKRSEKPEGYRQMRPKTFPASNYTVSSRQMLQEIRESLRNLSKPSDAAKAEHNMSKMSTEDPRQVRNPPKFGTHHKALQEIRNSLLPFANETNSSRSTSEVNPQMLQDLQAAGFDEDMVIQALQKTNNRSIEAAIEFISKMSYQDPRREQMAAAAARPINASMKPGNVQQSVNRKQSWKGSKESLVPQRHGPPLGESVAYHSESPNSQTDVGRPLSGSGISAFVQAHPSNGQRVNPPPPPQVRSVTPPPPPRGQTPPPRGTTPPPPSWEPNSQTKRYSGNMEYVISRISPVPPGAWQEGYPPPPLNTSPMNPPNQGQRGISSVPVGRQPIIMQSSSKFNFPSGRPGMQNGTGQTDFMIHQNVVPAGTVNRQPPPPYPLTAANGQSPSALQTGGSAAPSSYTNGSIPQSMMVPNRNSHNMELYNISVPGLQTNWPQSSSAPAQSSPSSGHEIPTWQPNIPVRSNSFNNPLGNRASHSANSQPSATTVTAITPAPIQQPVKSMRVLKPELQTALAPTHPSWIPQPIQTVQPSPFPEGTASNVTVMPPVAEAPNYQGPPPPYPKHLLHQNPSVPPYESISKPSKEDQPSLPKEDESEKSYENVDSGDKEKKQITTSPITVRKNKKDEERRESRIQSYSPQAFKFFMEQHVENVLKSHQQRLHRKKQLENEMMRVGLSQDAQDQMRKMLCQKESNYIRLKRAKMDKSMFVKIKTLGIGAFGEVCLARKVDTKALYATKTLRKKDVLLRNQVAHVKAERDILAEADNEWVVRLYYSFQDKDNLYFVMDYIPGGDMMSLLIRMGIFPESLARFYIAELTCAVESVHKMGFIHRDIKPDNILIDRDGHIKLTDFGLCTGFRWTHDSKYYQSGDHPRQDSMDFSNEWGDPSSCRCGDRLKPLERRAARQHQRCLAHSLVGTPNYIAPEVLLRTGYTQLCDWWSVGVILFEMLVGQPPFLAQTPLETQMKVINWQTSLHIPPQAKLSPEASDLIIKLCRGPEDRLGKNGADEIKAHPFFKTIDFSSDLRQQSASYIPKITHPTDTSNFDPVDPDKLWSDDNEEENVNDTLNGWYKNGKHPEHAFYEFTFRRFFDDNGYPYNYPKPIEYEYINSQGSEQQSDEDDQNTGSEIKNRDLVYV
Outline: as §1

| SMILES | remaining binding at 1 µM [1] [%] | remaining binding at 1 µM [2] [%] | remaining binding at 1 µM [3] [%] |
| --- | --- | --- | --- |
| CC1(Nc2nc(Nc3cnn([C@H]4CCN(C5COC5)C[C@@H]4F)c3Cl)nc3[nH]cc(C#N)c23)CC1 [Example 52, 2-((5-chloro-1-((3S,4S)-3-fluoro-1-(oxetane-3-yl)piperidine-4-yl)-1H-pyrazole-4-yl)amino)((1-methylcyclopropyl)amino)-7H-pyrrolo[2,3-d]pyrimidine-5-carbonitrile] | 1.2 | 18 | 35 |
| CNc1nc(Nc2ccc(C(=O)N3CCOCC3)cc2OC)nc2[nH]cc(C#N)c12 [Example 1, 2-((2-methoxy-4-(morpholine-4-carbonyl)phenyl)amino)-4-(methylamino)-7H-pyrrolo[2,3-d]pyrimidine-5-carbonitrile] | 75 | 48 | 100 |
| CCNc1nc(Nc2ccc(C(=O)N3CCC(N4CCOCC4)CC3)cc2OC)nc2[nH]cc(C(F)(F)F)c12 [Example 104, (4-((4-(ethylamino)-5-(trifluoromethyl)-7H-pyrrolo[2,3-d]pyrimidine-2-yl)amino)-3-methoxyphenyl)(4-morpholinopiperidine-1-yl)methanone] | 69 | 100 | 100 |
